test system: CD4 Naïve T cells from BALB/c mice mixed with C57BL/6 dendritic cells; test: Allogeneic Mixed Lymphocyte Reaction, inflammatory factors in supernatant; type: cell-based, mouse; conditions: 125 nM, 250 nM, 500 nM, 1000 nM; 5 days of culture; compared with control group
Experimental: Bone marrow cells from C57BL/6 (B6) mouse were isolated and incubated with granulocyte-macrophage colony stimulating factor (GM-CSF, 20 ng/mL, Biolegend, 713704) and interleukin-4 (IL-4, 10 ng/mL, Biolegend, 10715004) for 7 days, followed by addition of 20 ng/mL lipopolysaccharide (LPS) and incubation for 24 hours, the dendritic cells (DC) were collected. The CD4 Naïve T cells from BALB/c mice were extracted and isolated with a commercial kit (Dakewe, 480039). […] CD4 Naïve T cells and 25×10^3 DC cells were mixed and cultured. Compound 007 was added to the mixed cells at four concentrations (125 nM, 250 nM, 500 nM, and 1000 nM), respectively, and a control group (to which an equal amount of the medium was added) was set. After 5 days of culture, the supernatants were collected and kits were employed for the detection of inflammatory factors (IL-6 (Duyou, 1210602), TNF-α (Duyou, 1217202), IFN-γ (Duyou, 1210002), and IL-2 (Duyou, 1210202)).

| SMILES | levels of the inflammatory factors (IL-6, TNF-α, IFN-γ, IL-2) |
| --- | --- |
| Cn1c(C(=O)N2CC(F)(F)C2)cc2ccc(-c3nccc(Nc4ccc(-c5cn[nH]c5)cc4)n3)cc21 [Compound 007] | significantly reduced the levels of the inflammatory factors |

test system: irradiated BALB/c recipient mice infused with C57BL/6 donor bone marrow and spleen cells; test: Therapeutic effect in mice: allogeneic bone marrow/spleen cell transplantation GVHD model, survival rate; type: in vivo; conditions: 30 mpk oral gavage once daily for 23 days, compared with the model group
Experimental: Male BALB/c recipient mice were irradiated with 8.5 Gy of total body irradiation (TBI) (Gammacell 40, NORPION International Co., Ltd., irradiation source: ^137Cs). A suspension of bone marrow cells (BMC) and spleen cells (SC) from C57BL/6 (H-2b) donor mice was prepared and infused via tail vein to irradiated BALB/c recipient mice at 0.5 mL/per mouse (containing 10×10^6 bone marrow cells and 6.25×10^6 spleen cells from the allogeneic C57BL/6 (H-2b) donor mice). Subsequently, the BALB/c mice were randomly divided into two groups: a model group (G2) and a compound 007 group (G3). An irradiation group (G4) (i.e., receiving ^137Cs irradiation only without donor mouse cell suspension infusion) and a syngeneic bone marrow transplantation group (G1) (a suspension containing 10×10^6 bone marrow cells from syngeneic BALB/c mice was administered to mice in this group via tail vein infusion). G1-G4 groups comprised 9 mice per group. The mice in the model group, the irradiation group and the syngeneic bone marrow transplantation group were administered with vehicle (a 0.2% Tween-80 aqueous solution) by oral gavage, once a day for 23 days. The mice in the compound 007 group were administered with 30 mpk of compound 007 by oral gavage, once daily for 23 days from the first day of model establishment. The survival rate of the animals was recorded daily.

| SMILES | survival rate |
| --- | --- |
| Cn1c(C(=O)N2CC(F)(F)C2)cc2ccc(-c3nccc(Nc4ccc(-c5cn[nH]c5)cc4)n3)cc21 [Compound 007] | significantly improved the survival rate |

molecular target: ROCK2 (Homo sapiens (Human), UniProt O75116); test: ROCK2 Kinase Activity Assay (HTRF KinEASE-STK S2 kit); type: biochemical; conditions: not given
Sequence (O75116 1-553 limits assumed): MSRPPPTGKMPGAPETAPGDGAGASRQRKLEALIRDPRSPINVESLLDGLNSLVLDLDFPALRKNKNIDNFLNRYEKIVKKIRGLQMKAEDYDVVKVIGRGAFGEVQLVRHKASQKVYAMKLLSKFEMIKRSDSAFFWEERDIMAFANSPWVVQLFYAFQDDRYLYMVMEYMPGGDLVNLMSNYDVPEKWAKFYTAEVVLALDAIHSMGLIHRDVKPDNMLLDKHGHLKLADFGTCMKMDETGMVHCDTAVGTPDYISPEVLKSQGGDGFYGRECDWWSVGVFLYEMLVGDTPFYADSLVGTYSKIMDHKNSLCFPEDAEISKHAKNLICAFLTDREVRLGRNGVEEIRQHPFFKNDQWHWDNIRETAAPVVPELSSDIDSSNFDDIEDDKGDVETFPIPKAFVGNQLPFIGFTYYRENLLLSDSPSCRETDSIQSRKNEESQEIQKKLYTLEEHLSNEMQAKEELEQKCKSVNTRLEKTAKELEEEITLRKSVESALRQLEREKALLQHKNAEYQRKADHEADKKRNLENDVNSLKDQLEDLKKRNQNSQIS
Experimental: The kinase IC50 was determined by a commercialized CISBIO kinase detection kit, HTRF KinEASE-STK S2 kit (62ST2PEC). ROCK2 (01-119) employed in the reaction was purchased from Carna Biosciences.
Before the assay, the following working solutions as needed were formulated with corresponding reagents according to the instruction of the kinase detection kit: 1×kinase buffer, 5×STK-S2 substrate working solution (1.5 μM) and 5×ATP working solution (1.5 μM), 5×ROCK2 kinase working solution, 4×Streptavidin-XL665 working solution, and 4×STK-Ab-Cryptate 2 detection solution. Then the assay was performed according to the following procedure.
A solution of a compound at a concentration of 10000 nM was prepared with the 1×kinase buffer containing 2.5% DMSO. Gradient dilution of the solution of the compound was performed with the kinase buffer containing DMSO, so as to obtain solutions of a test compound at 9 different concentrations. In addition to wells of test compounds, a positive well (containing all the reagents except the compound) and a negative well (containing all the reagents except the test compound and kinase) were set. Except for the control wells (positive and negative wells), a solution of a test compound (4 μL) was added to each of the reaction wells, and a solution of 2.5% DMSO was added to the control wells. Then the substrate (2 μM, i.e., 2 μL 5×STK-S2 substrate working solution) was added to each of the reaction wells. The 5×ROCK2 kinase working solution (2 μL, containing 1.4 ng ROCK2 kinase) was added to each of the reaction wells except for the negative well, the volume of which was made up with the 1×kinase buffer (2 μL). The 5×ATP working solution (2 μL) was added to each of the reaction wells, and the mixtures were incubated at room temperature for 2 hours. After the kinase reaction was complete, the 4×Streptavidin-XL665 working solution was added to each of the reaction wells, the solutions were mixed, followed by immediate addition of the 4×STK-Ab-Cryptate 2 detection solution (5 μL), and the mixtures were incubated at room temperature for 1 hour. The fluorescence signal was read on ENVISION (Perkinelmer) (excitation wavelength: 320 nm, and emission wavelength: 665 nm and 615 nm). The inhibitory rate in each well was calculated based on the fluorescence intensity value: ER (Emission Ratio)=(fluorescence intensity at 665 nm/fluorescence intensity at 615 nm); inhibitory rate=(ERpositive−ERtest compound)/(ERpositive−ERnegative)*100%. Curves were plotted and fitted to obtain the median inhibitory concentration (IC50) of each teat compound with the PRISM 5.0 software.

| SMILES | IC50 [nM] |
| --- | --- |
| Cn1c(C(=O)N2CC(F)(F)C2)cc2ccc(-c3nccc(Nc4ccc(-c5cn[nH]c5)c(F)c4)n3)cc21 [Compound 011] | 9 |
| O=C(N1Cc2ccc(-c3nccc(Nc4ccc(-c5cn[nH]c5)cc4)n3)cc2C1)N1CC(F)(F)C1 [Compound 022] | 75 |
| O=C(c1cc2ccc(-c3nccc(Nc4ccc(-c5cn[nH]c5)c(F)c4)n3)cc2[nH]1)N1CC(F)(F)C1 [Compound 010] | 61 |
| O=C(c1cc2ccc(-c3nccc(Nc4ccc(-c5cn[nH]c5)cc4)n3)cc2[nH]1)N1CC(F)(F)C1 [Compound 006] | 34 |
| O=C(C1CC(F)(F)C1)N1Cc2ccc(-c3ncc(F)c(Nc4ccc(-c5cn[nH]c5)cc4)n3)cc2C1 [Compound 021] | 45 |
| O=C(c1cc2ccc(-c3ncc(F)c(Nc4ccc(-c5cn[nH]c5)cc4)n3)cc2[nH]1)N1CC(F)(F)C1 [Compound 008] | 24 |
| Fc1cc(Nc2ccnc(-c3ccc4cc(-c5nccs5)[nH]c4c3)n2)ccc1-c1cn[nH]c1 [Compound 128] | 27 |
| Cn1c(C(=O)N2CC(F)(F)C2)cc2ccc(-c3ncc(F)c(Nc4ccc(-c5cn[nH]c5)cc4)n3)cc21 [Compound 009] | 12 |
| Cn1c(C(=O)N2CC(F)(F)C2)cc2ccc(-c3nccc(Nc4ccc(-c5cn[nH]c5)cc4)n3)cc21 [Compound 007] | 33 |
| O=C(C1CC(F)(F)C1)N1Cc2ccc(-c3nccc(Nc4ccc(-c5cn[nH]c5)cc4)n3)cc2C1 [Compound 020] | 44 |
